Results as given in patent US20180177753A1, “GLYCERYL 3-HYDROXYBUTYRATES FOR MIGRAINE SYMPTOM MANAGEMENT” (NeuroEnergy Ventures, Inc., priority 2016, published 2018).

How the values were obtained:
Assay type in all cases: in vivo
[1] = Self-administration at onset of prodromal visual disturbances in a subject with episodic migraines; conditions: 60 kg female, 15 g orally within minutes of visual disturbances, 3 times a day for 4 days
From the text: A 60 kg person presents with episodic migraines occurring one such headache occurring and then not again for a number of months. At each event, shortly before the headache begins, the subject has visual disturbances classic of migraine. The subject is requested to self-administer 15 grams of glyceryl tris(3-hydroxybutyrate) upon noticing the next time visual disturbance of this type appear and continue to do so 3 times a day for 4 days. The subject notices such symptoms, and ingests 15 g of glyceryl tris(3-hydroxybutyrate) within minutes of noticing the symptoms.

[2] = Preventive administration before an expected migraine in a subject with chronic repetitive migraine; conditions: 70 kg male of Example 2, 20 g 3 times a day, days 90 to 130, started about 5-6 days before expected onset
From the text: The subject of Example 2 discontinues the administration after 35 days, is migraine free for two months and a further episode occurs and Example 2 is followed again, counting the start of this second migraine as day 1, except that after ceasing the administration on day 35, the subject begins administration again on day 90 (about 5-6 days before an expected onset of a further migraine based on this subject's history) and continues administration for an additional 40 days (that is for days 90 to 130).

[3] = Self-administration at migraine onset in subjects with chronic repetitive migraine; conditions: 70 kg male, 20 g at migraine onset, 3 times a day for 35 days
From the text: There is no known or suspect event triggering these events. The subject is instructed to self-administer 20 g of glyceryl tris(3-hydroxybutyrate) upon the onset of the migraine and to continue to self-administer at this dosage 3 times a day for 35 days.
A 60 kg person presents with chronic repetitive migraine with a similar repetitive pattern to the subject of Examples 2 and 3. They are instructed to self-administer 15 g of glyceryl tris(3-hydroxybutyrate) upon the onset of the migraine, rather than the 20 g as in Examples 2 and 3, but otherwise to follow the regimen in Examples 2 and 3.

CC(O)CC(=O)OCC(COC(=O)CC(C)O)OC(=O)CC(C)O (stereo not shown) [glyceryl tris(3-hydroxybutyrate)]
duration of the headache that follows, versus past episodes [1]: lesser duration | intensity of the headache that follows, versus past episodes [1]: lesser intensity | occurrence of the expected migraine (days 94-95) during the administration period [2]: no such migraine appears | duration of the usual initial migraine, versus past history [3]: shorter duration | frequency of the repetitive migraines, versus past history [3]: further reduced in frequency | intensity of the repetitive migraines, versus past history [3]: further reduced in frequency and intensity | severity of the usual initial migraine, versus past history [3]: less severe
